The source of these data is US20110105474A1, “HETEROCYCLIC DERIVATIVES AS HDAC INHIBITORS” (DAC S.r.l., priority 2008, published 2011).

By IC50 is commonly meant the concentration that gives 50% inhibition.

Where a name gives a salt, the structure may show the parent alone.

Assay type in all cases: cell-based
In one assay the test system is HCT-116 cells. The experiment in a line: Cell growth, CellTiter-Glo Luminescent Cell Viability Assay, HCT-116. Conditions: Homo sapiens, 72 h incubation, read-out: IC50 HCT116. From the text: (§1) CellTiter-Glo® Luminescent Cell Viability Assay (Promega) is a homogeneous method of determining the number of viable cells in culture based on quantitation of the present ATP, which indicates the presence of metabolically active cells. The homogeneous assay procedure involves addition of a single reagent (CellTiter-Glo®Reagent) directly to the cells, which leads to cell lysis and generation of a luminescent signal proportional to the amount of the ATP and the number of cells present in culture. The assay relies on the properties of a proprietary thermostable luciferase (Ultra-Glo® recombinant luciferase), which generates a luminescent signal.
(§2) K562, A549 and HCT-116 cells, in exponential growth, were incubated for 72 h with different concentrations of the inhibitors. After 72 h, a volume of CellTiter-Glo® Reagent equal to the volume of cell culture medium was added. The content was mixed for 2 min to induce cell lysis. The luminescence was recorded after further 10 min at RT in order to obtain a stabilized luminescent signal.
(§3) The IC50 was calculated using GraphPad Software.
(§4) IC50 results were allocated to one of 3 ranges as follows: Range A: IC50≦1.0 μM; Range B: from 1.0 to 3.0 μM; Range C: IC50≧3.0 μM.
For orientation: Cellular ATP, detected with luciferase, serves as a proxy for viable cell number.

The subject of a further assay is A549 cells. The experiment in a line: Cell growth, CellTiter-Glo Luminescent Cell Viability Assay, A549. The note with it: Homo sapiens, 72 h incubation.
Text: as §1, §2, §3, §4

The next assay deals with K562 cells. Kind of assay: Cell growth, CellTiter-Glo Luminescent Cell Viability Assay, K562. The note with it: Homo sapiens, 72 h incubation.
Text: as §1, §2, §3, §4

On to `O=C(/C=C/c1cccc(/C=C/C(=O)N2CCC(c3ccccc3)CC2)n1)NO` [Example 19, (E)-N-Hydroxy-3-{6-[(E)-3-oxo-3-(4-phenyl-piperidin-1-yl)-propenyl]-pyridin-2-yl}-acrylamide hydrochloride], for which the IC50 in the assay on HCT-116 cells, in the assay on A549 cells and in the assay on K562 cells was 1 to 3 µM each time.

In the case of `O=C(/C=C/c1cccc(/C=C/C(=O)N2CCN(c3ncccn3)CC2)n1)NO` [Example 20, (E)-N-Hydroxy-3{-6-[(E)-3-oxo-3-(4-pyrimidin-2-yl-piperazin-1-yl)-propenyl]-pyridin-2-yl}-acrylamide hydrochloride], the IC50 with HCT-116 cells, in the assay with A549 cells and in the assay with K562 cells was not below 3 µM in each case.

Take `O=C(/C=C/c1cccc(/C=C/C(=O)N2CCN(c3ccc(Cl)cc3)CC2)n1)NO` [Example 21, (E)-3-(6-{(E)-3-[4-(4-Chloro-phenyl)-piperazin-1-yl]-3-oxo-propenyl}-pyridin-2-yl)-N-hydroxy-acrylamide hydrochloride]: the IC50 in the assay with HCT-116 cells, in the assay on A549 cells and in the assay on K562 cells was not above 1 µM throughout.

For `O=C(/C=C/c1cccc(/C=C/C(=O)N2CCN(Cc3ccccc3)CC2)n1)NO` [Example 22, (E)-3-{6-[(E)-3-(4-Benzyl-piperazin-1-yl)-3-oxo-propenyl]-pyridin-2-yl}-N-hydroxy-acrylamide hydrochloride], the half-inhibitory concentration (IC50) is 1 to 3 µM in the assay on HCT-116 cells, not below 3 µM with A549 cells and 1 to 3 µM in the assay on K562 cells.

For `O=C(/C=C/c1cccc(/C=C/C(=O)N2CCN(CCc3ccccc3)CC2)n1)NO` [Example 23, (E)-N-Hydroxy-3-{6-[(E)-3-oxo-3-(4-phenethyl-piperazin-1-yl)-propenyl]-pyridin-2-yl}-acrylamide hydrochloride], the IC50 in the assay on HCT-116 cells is 1 to 3 µM; with A549 cells it was not below 3 µM; in the assay on K562 cells it was 1 to 3 µM.

Consider `O=C(/C=C/c1cccc(/C=C/C(=O)N2CCC(C(=O)c3ccccc3)CC2)n1)NO` [Example 24, (E)-3-{6-[(E)-3-(4-Benzoyl-piperidin-1-yl)-3-oxo-propenyl]-pyridin-2-yl}-N-hydroxy-acrylamide hydrochloride], for which the IC50 in the assay on HCT-116 cells was 1 to 3 µM; in the assay on A549 cells it was not below 3 µM; with K562 cells it was 1 to 3 µM.

Consider `O=C(/C=C/c1cccc(/C=C/C(=O)N2CC=C(c3ccccc3)CC2)n1)NO` [Example 26, (E)-N-Hydroxy-3-{6-[(E)-3-oxo-3-(4-phenyl-3,6-dihydro-2H-pyridin-1-yl)-propenyl]-pyridin-2-yl}-acrylamide hydrochloride], for which the half-maximal inhibitory concentration (IC50) was not above 1 µM in the assay with HCT-116 cells, 1 to 3 µM with A549 cells and 1 to 3 µM in the assay on K562 cells.

Consider `Cc1cccc(C)c1C1CCN(C(=O)/C=C/c2cccc(/C=C/C(=O)NO)n2)CC1` [Example 27, (E)-3-(6-{(E)-3-[4-(2,6-Dimethyl-phenyl)-piperidin-1-yl]-3-oxo-propenyl}-pyridin-2-yl)-N-hydroxy-acrylamide hydrochloride], for which the IC50 in the assay with HCT-116 cells, in the assay on A549 cells and with K562 cells was 1 to 3 µM throughout.

As for `N#CC1(c2ccccc2)CCN(C(=O)/C=C/c2cccc(/C=C/C(=O)NO)n2)CC1` [Example 28, (E)-3-{6-[(E)-3-(4-Cyano-4-phenyl-piperidin-1-yl)-3-oxo-propenyl]-pyridin-2-yl}-N-hydroxy-acrylamide hydrochloride], the IC50 with HCT-116 cells was 1 to 3 µM; with A549 cells, not below 3 µM; in the assay with K562 cells it was 1 to 3 µM.

In the case of `O=C(/C=C/c1cccc(/C=C/C(=O)N2CCN(c3ccccn3)CC2)n1)NO` [Example 29, (E)-N-Hydroxy-3-{6-[(E)-3-oxo-3-(4-pyridin-2-yl-piperazin-1-yl)-propenyl]-pyridin-2-yl}-acrylamide hydrochloride], the IC50 in the assay with HCT-116 cells, with A549 cells and in the assay on K562 cells was not below 3 µM in each case.

Take `Cc1cccc(C)c1N1CCN(C(=O)/C=C/c2cccc(/C=C/C(=O)NO)n2)CC1` [Example 31, (E)-3-(6-{(E)-3-[4-(2,6-Dimethyl-phenyl)-piperazin-1-yl]-3-oxo-propenyl}-pyridin-2-yl)-N-hydroxy-acrylamide hydrochloride]: the figures for the IC50 in the assay on HCT-116 cells, in the assay with A549 cells and in the assay on K562 cells were 1 to 3 µM, not below 3 µM and 1 to 3 µM, respectively.

For `O=C(/C=C/c1cccc(/C=C/C(=O)N2CCC3(CC2)C(=O)NCN3c2ccccc2)n1)NO` [Example 32, (E)-N-Hydroxy-3-{6-[(E)-3-oxo-3-(4-oxo-1-phenyl-1,3,8-triaza-spiro[4.5]dec-8-yl)-propenyl]-pyridin-2-yl}-acrylamide hydrochloride], the IC50 with HCT-116 cells, with A549 cells and in the assay on K562 cells was not below 3 µM throughout.

For the molecule `COc1ccc(N2CCN(C(=O)/C=C/c3cccc(/C=C/C(=O)NO)n3)CC2)cc1` [Example 34, (E)-N-Hydroxy-3-(6-{(E)-3-[4-(4-methoxy-phenyl)-piperazin-1-yl]-3-oxo-propenyl}-pyridin-2-yl)-acrylamide hydrochloride], the IC50 in the assay on HCT-116 cells was not above 1 µM; in the assay with A549 cells, 1 to 3 µM; with K562 cells it was 1 to 3 µM.

With `O=C(/C=C/c1cccc(/C=C/C(=O)N2CCN(c3ccc(C(F)(F)F)cc3)CC2)n1)NO` [Example 35, (E)-N-Hydroxy-3-(6-{(E)-3-oxo-3-[4-(4-trifluoromethyl-phenyl)-piperazin-1-yl]-propenyl}-pyridin-2-yl)-acrylamide hydrochloride], the IC50 is not above 1 µM in the assay on HCT-116 cells, not above 1 µM with A549 cells and 1 to 3 µM with K562 cells.

With `N#Cc1ccc(N2CCN(C(=O)/C=C/c3cccc(/C=C/C(=O)NO)n3)CC2)cc1` [Example 36, (E)-3-(6-{(E)-3-[4-(4-Cyano-phenyl)-piperazin-1-yl]-3-oxo-propenyl}-pyridin-2-yl)-N-hydroxy-acrylamide hydrochloride], the IC50 in the assay on HCT-116 cells, in the assay with A549 cells and with K562 cells was not below 3 µM in each case.

As to `O=C(/C=C/c1cccc(/C=C/C(=O)N2CCN(c3ccc(F)cc3)CC2)n1)NO` [Example 37, (E)-3-(6-{(E)-3-[4-(4-Fluoro-phenyl)-piperazin-1-yl]-3-oxo-propenyl}-pyridin-2-yl)-N-hydroxy-acrylamide hydrochloride], the IC50 is not above 1 µM in the assay on HCT-116 cells, 1 to 3 µM with A549 cells and 1 to 3 µM in the assay on K562 cells.

With `O=C(/C=C/c1cccc(/C=C/C(=O)N2CCN(c3ccc(Br)cc3)CC2)n1)NO` [Example 38, (E)-3-(6-{(E)-3-[4-(4-Bromo-phenyl)-piperazin-1-yl]-3-oxo-propenyl}-pyridin-2-yl)-N-hydroxy-acrylamide hydrochloride], the IC50 with HCT-116 cells, with A549 cells and in the assay with K562 cells was not above 1 µM throughout.

For `O=C(/C=C/c1cccc(/C=C/C(=O)N2CCN(c3ccc(OCc4ccccc4)cc3)CC2)n1)NO` [Example 39, (E)-3-(6-{(E)-3-[4-(4-Benzyloxy-phenyl)-piperazin-1-yl]-3-oxo-propenyl}-pyridin-2-yl)-N-hydroxy-acrylamide hydrochloride], the values for the IC50 in the assay with HCT-116 cells, in the assay on A549 cells and with K562 cells were 1 to 3 µM, not below 3 µM and 1 to 3 µM, respectively.

`O=C(/C=C/c1cccc(/C=C/C(=O)N2CCN(c3ccncc3)CC2)n1)NO` [Example 40, (E)-N-Hydroxy-3-{6-[(E)-3-oxo-3-(4-pyridin-4-yl-piperazin-1-yl)-propenyl]-pyridin-2-yl}-acrylamide hydrochloride]: the IC50 with HCT-116 cells, in the assay with A549 cells and in the assay on K562 cells was not below 3 µM each time.

`O=C(/C=C/c1cccc(/C=C/C(=O)N2C[C@@H]3C[C@H]2CN3c2ccc(Cl)cc2)n1)NO` [Example 41, (E)-3-(6-{(E)-3-[5-(4-Chloro-phenyl)-(1S,4S)-2,5-diaza-bicyclo[2.2.1]hept-2-yl]-3-oxo-propenyl}-pyridin-2-yl)-N-hydroxy-acrylamide trifluoroacetate]: the IC50 in the assay on HCT-116 cells is 1 to 3 µM; in the assay with A549 cells it was not below 3 µM; in the assay on K562 cells, 1 to 3 µM.

In the case of `O=C(/C=C/c1cccc(/C=C/C(=O)N2CCc3[nH]c4ccccc4c3C2)n1)NO` [Example 45, (E)-N-Hydroxy-3-{6-[(E)-3-oxo-3-(1,3,4,5-tetrahydro-pyrido[4,3-b]indol-2-yl)-propenyl]-pyridin-2-yl}-acrylamide hydrochloride], the IC50 with HCT-116 cells was 1 to 3 µM; with A549 cells, not below 3 µM; in the assay with K562 cells it was 1 to 3 µM.

On to `CC(C)c1ccc(N2CCN(C(=O)/C=C/c3cccc(/C=C/C(=O)NO)n3)CC2)cc1` [Example 49, (E)-N-Hydroxy-3-(6-{(E)-3-[4-(4-isopropyl-phenyl)-piperazin-1-yl]-3-oxo-propenyl}-pyridin-2-yl)-acrylamide hydrochloride], for which the values for the IC50 in the assay with HCT-116 cells, in the assay with A549 cells and in the assay on K562 cells were not above 1 µM, 1 to 3 µM and 1 to 3 µM, respectively.

`CC(C)(C)c1ccc(N2CCN(C(=O)/C=C/c3cccc(/C=C/C(=O)NO)n3)CC2)cc1` [Example 50, (E)-3-(6-{(E)-3-[4-(4-tert-Butyl-phenyl)-piperazin-1-yl]-3-oxo-propenyl}-pyridin-2-yl)-N-hydroxy-acrylamide hydrochloride]: the IC50 was 1 to 3 µM with HCT-116 cells, not below 3 µM in the assay with A549 cells and 1 to 3 µM in the assay with K562 cells.
